From US20150352040A1 (priority 2010, published 2015)
Like-named read-outs stand apart in the source and are kept apart here.

Key:
[1] = in comparison to a 15 mg dose of hydrocodone
Excerpt: In certain preferred embodiments, the opioid agonist is hydrocodone.

[2] = milligram-for-milligram basis; cited from earlier work
[3] = TRNA therapy with topical apomorphine, onset of clinical effect; format: in vivo, human
human patients [4] = tested on: human patients
patients [5] = experiment: Compounded topical morphine sulfate and tramadol, inventor's clinical experience (nuchal and peripheral application); conditions: patients tapering off oral narcotics, nuchal delivery as only pain therapy
Protocol: The dose for MS has been 2.5-5.0 mg and for tramadol, 40-80 mg, divided over two to three locations, as described herein.
With activation of opioid receptors potentially providing improved pain relief, MS and tramadol were compounded for topical administration.

human patients [6] = experiment: Efficacy of topical opioid analgesic formulations in human patients (Example 6); format: in vivo
Excerpt: The efficacy of topical opioid analgesic formulations was studied in human patients.

[7] = compounded morphine in cold cream applied locally to skin at areas of pain; cited from earlier work
[8] = cited from earlier work
patient = conditions: 1 mg twice daily
patients [9] = conditions: cited from earlier work
[10] = case 4, acute lumbar sprain, 1.0 mg application
[11] = Patient C, 40 mg topical divided between knee and lower back
[12] = Patient E, 40 mg topical to neck and back in divided dose
[13] = Patient F, 40 mg topical to nuchal region and lower back in divided doses
[14] = Patient H, 40 mg topical in 1 ml Lipoderm

COc1ccc2c3c1O[C@H]1[C@@H](O)C=C[C@H]4[C@@H](C2)N(C)CC[C@@]341 [Codeine]
Calculated Dose (mg), equianalgesic [1]: 90.0 mg

CC(=O)Oc1ccc2c3c1O[C@H]1[C@@H](OC(C)=O)C=C[C@H]4[C@@H](C2)N(C)CC[C@@]341 [Heroin, diacetylmorphine]
potency relative to morphine [2]: 1.5-2 times

COc1ccc2c3c1O[C@H]1C(=O)CC[C@H]4[C@@H](C2)N(C)CC[C@]314 [Hydrocodone]
Calculated Dose (mg), equianalgesic [1]: 15.0 mg

CN1CC[C@]23CCCC[C@H]2[C@H]1Cc1ccc(O)cc13 [Levorphanol]
Calculated Dose (mg), equianalgesic [1]: 1.8 mg

CCC(=O)C(CC(C)N(C)C)(c1ccccc1)c1ccccc1 (stereo not drawn) [Methadone]
Calculated Dose (mg), equianalgesic [1]: 9.0 mg

COc1ccc2c3c1O[C@H]1C(=O)CC[C@@]4(O)[C@@H](C2)N(C)CC[C@]314 [Oxycodone]
Calculated Dose (mg), equianalgesic [1]: 13.5 mg

CN1CCc2cccc3c2[C@H]1Cc1ccc(O)c(O)c1-3 [apomorphine]
onset of clinical effect [3]: 10 to 15 min | time to pain relief, all patients (human patients [4]; Example 3, cream of Example 1 over nerve entrapment areas or affected muscle): 5 to 10 min | outcome, carpal tunnel syndrome (human patients [4]; case 1, pregnant person, 0.5 mg at the wrist): without recurrent symptoms | pain relief (human patients [4]; case 2, additional 0.5 mg after 24 hours): complete pain relief | pain relief (human patients [4]; case 2, tarsal tunnel syndrome/plantar fasciitis, runner, 0.5 mg application): 90% | outcome, pain (human patients [4]; case 3, hamstring injury, 0.5 mg): complete resolution of pain without recurrence | time to resolution of pain (human patients [4]; case 3, hamstring injury, 0.5 mg to muscle and insertion site): 5 to 10 min | pain and spasm relief (human patients [4]; case 4 (person one), acute lumbar sprain, 1.0 mg application): 80-90% | duration of relief (human patients [4]; [10]): lasted overnight | time to pain and spasm relief (human patients [4]; [10]): 10 to 15 min | outcome, acute lumbar sprain from lifting (human patients [4]; case 5, 0.5 mg application and heating pad): without recurrent symptoms | outcome, foot pain from stress fractures and tarsal tunnel (human patients [4]; case 6, marathon runner, 0.5 mg to base of toe and 0.5 to tarsal tunnel): experienced pain relief | tolerability of increased single dose (human patients [4]; single topical dose increased to 2 mg, peripheral application): without deleterious effects

CN1CC[C@]23c4c5ccc(O)c4O[C@H]2[C@@H](O)C=C[C@H]3[C@H]1C5.O=S(=O)(O)O [morphine sulfate]
narcotic withdrawal symptoms (patients [5]): no significant narcotic withdrawal symptoms | further reduction in pain from baseline (human patients [6]; Patient G, 3 mg topical in Pass-gel to the nuchal region, on oral oxycodone): 20-30% | reduction in baseline back and hip pain (human patients [6]; Patient I, topical 2.5 mg in 0.5 ml Pass-gel, despite regular narcotics): 15-20% | time to reduction in pain (human patients [6]; Patient K, topical 2.5 mg to the nuchal region): 10 to 15 min | headache and neck pain after treatment (human patients [6]; Patient K, topical 2.5 mg to the nuchal region, from "severe"): 0-1 of 10 | time to reduction in pain (human patients [6]; Patient L, topical 2.5 mg to the nuchal region): 8 to 10 min | pain after treatment (human patients [6]; Patient L, topical 2.5 mg to the nuchal region, from about 8 of 10): about 4 of 10

CN1CC[C@]23c4c5ccc(O)c4O[C@H]2[C@@H](O)C=C[C@H]3[C@H]1C5 [morphine]
morphine levels in blood or urine [7]: not detected | additional pain relief (human patients [6]; Patient D, topical 2.5 mg in 0.5 ml Pass-gel, despite regular hydromorphone): 20-30%

Clc1ccc2nsnc2c1NC1=NCCN1 [tizanidine]
absorption after oral administration [8]: completely absorbed | state of spastic upper extremity (patient; after a few months of continued therapy): essentially back to normal | state of spastic upper extremity (patient; within several weeks): visible improvement

COc1cccc(C2(O)CCCCC2CN(C)C)c1 (stereo not drawn) [tramadol]
onset of withdrawal after the last dose (patients [9]; in most cases): 12 to 20 h | duration of acute withdrawal symptoms (patients [9]; versus three or four days for other codeine analogues): seven days or more | narcotic withdrawal symptoms (patients [5]): no significant narcotic withdrawal symptoms | pain relief (human patients [6]; Patient A, topical in Lipoderm, 40 mg tramadol hydrochloride dose twice daily, nuchal region and back): Pain relief is achieved | pain in the neck after treatment (human patients [6]; Patient B, 15 minutes after 20 mg topical to nuchal region and lower back, baseline about 7-8/10): about 0 /10 | pain in the back and legs after treatment (human patients [6]; Patient B, 15 minutes after 20 mg topical to nuchal region and lower back, baseline about 7/10): about 2 /10 | benefit of oral tablets in the past (human patients [6]; Patient B, tramadol (Ultram) tablets): without significant benefit | eventual pain relief (human patients [6]; [11]): 80-90% | time to initial reduction in pain (human patients [6]; [11]): ≤ 15 min | initial reduction in pain (human patients [6]; Patient C, right knee pain, 40 mg topical divided between knee (popliteal fossa) and lower back): ~50% | outcome (human patients [6]; Patient D, 40 mg topical at the nuchal region): with benefit | reduction in pain (human patients [6]; [12]): 70-80% | time to reduction in pain (human patients [6]; [12]): 10 to 15 min | pain relief (human patients [6]; [13]): ≥ 70% | time to pain relief (human patients [6]; [13]): ≤ 15 min | duration of pain relief (human patients [6]; [14]): ~48 h | time to pain relief (human patients [6]; [14]): ≤ 15 min | pain relief (human patients [6]; Patient H, 40 mg topical in 1 ml Lipoderm to neck and back in divided doses): greater than 80% | outcome, pain (trigeminal neuralgia and cervical sprain) (human patients [6]; Patient J, topical 40 mg in 1 ml Lipoderm to the nuchal region): dramatic improvement in pain

Meperidine
Calculated Dose (mg), equianalgesic [1]: 135.0 mg
